Laboratory results reported in US12264156B2, “Compounds and pharmaceutical compositions thereof for the treatment of diseases” (GALAPAGOS NV, priority 2018, dated 2025).

What was measured:
Type in all cases: biochemical
Details in all cases: ADP-Glo SIK kinase assay
[1] = target: T1, SIK1 (Homo sapiens, UniProt P57059); experiment: ADP-Glo kinase assay, SIK1
T1 construct: purchased Carna Biosciences 02-131
How it was run: (§1)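 Enzyme–substrate mix was started with ATP and incubated 120 min at RT. ADP formed was quantified by ADP-Glo: 40 min ATP depletion, then 30 min detection reagent converting ADP to ATP for luciferase luminescence, which rises with kinase activity. Controls: 1% DMSO and 10 μM staurosporine (final).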

[2] = target: T2, SIK2 (Homo sapiens, UniProt Q9H0K1); experiment: ADP-Glo kinase assay, SIK2
T2 construct: purchased ThermoFisher Scientific PV4792
How it was run: as §1

[3] = target: T3, SIK3 (Homo sapiens, UniProt Q9Y2K2); experiment: ADP-Glo kinase assay, SIK3
T3 construct: purchased SignalChem S12-11G-100
How it was run: as §1

T2 sequence (Q9H0K1 whole entry): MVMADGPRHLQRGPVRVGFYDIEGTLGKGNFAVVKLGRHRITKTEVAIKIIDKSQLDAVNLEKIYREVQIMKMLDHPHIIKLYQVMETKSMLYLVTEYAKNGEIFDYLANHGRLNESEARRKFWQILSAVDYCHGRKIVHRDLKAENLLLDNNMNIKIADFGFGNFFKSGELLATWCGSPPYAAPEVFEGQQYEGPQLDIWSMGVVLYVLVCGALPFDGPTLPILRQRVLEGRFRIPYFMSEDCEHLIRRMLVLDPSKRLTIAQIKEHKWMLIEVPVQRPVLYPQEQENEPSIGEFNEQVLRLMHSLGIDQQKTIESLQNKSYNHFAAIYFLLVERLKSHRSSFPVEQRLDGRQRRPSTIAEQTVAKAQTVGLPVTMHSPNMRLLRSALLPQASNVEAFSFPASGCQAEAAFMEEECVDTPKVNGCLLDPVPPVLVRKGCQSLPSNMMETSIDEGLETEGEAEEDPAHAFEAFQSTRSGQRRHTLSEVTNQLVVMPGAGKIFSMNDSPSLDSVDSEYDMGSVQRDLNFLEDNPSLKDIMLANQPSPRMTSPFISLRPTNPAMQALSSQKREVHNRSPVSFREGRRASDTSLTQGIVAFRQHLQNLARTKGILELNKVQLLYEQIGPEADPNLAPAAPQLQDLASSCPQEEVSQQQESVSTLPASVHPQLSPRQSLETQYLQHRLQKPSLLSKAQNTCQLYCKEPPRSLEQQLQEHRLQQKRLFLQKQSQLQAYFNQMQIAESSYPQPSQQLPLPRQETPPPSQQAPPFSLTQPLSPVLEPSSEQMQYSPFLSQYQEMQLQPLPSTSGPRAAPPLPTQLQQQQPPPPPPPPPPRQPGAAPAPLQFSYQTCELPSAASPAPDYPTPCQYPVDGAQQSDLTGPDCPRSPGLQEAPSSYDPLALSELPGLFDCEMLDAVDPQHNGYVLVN
T3 sequence (Q9Y2K2 whole entry): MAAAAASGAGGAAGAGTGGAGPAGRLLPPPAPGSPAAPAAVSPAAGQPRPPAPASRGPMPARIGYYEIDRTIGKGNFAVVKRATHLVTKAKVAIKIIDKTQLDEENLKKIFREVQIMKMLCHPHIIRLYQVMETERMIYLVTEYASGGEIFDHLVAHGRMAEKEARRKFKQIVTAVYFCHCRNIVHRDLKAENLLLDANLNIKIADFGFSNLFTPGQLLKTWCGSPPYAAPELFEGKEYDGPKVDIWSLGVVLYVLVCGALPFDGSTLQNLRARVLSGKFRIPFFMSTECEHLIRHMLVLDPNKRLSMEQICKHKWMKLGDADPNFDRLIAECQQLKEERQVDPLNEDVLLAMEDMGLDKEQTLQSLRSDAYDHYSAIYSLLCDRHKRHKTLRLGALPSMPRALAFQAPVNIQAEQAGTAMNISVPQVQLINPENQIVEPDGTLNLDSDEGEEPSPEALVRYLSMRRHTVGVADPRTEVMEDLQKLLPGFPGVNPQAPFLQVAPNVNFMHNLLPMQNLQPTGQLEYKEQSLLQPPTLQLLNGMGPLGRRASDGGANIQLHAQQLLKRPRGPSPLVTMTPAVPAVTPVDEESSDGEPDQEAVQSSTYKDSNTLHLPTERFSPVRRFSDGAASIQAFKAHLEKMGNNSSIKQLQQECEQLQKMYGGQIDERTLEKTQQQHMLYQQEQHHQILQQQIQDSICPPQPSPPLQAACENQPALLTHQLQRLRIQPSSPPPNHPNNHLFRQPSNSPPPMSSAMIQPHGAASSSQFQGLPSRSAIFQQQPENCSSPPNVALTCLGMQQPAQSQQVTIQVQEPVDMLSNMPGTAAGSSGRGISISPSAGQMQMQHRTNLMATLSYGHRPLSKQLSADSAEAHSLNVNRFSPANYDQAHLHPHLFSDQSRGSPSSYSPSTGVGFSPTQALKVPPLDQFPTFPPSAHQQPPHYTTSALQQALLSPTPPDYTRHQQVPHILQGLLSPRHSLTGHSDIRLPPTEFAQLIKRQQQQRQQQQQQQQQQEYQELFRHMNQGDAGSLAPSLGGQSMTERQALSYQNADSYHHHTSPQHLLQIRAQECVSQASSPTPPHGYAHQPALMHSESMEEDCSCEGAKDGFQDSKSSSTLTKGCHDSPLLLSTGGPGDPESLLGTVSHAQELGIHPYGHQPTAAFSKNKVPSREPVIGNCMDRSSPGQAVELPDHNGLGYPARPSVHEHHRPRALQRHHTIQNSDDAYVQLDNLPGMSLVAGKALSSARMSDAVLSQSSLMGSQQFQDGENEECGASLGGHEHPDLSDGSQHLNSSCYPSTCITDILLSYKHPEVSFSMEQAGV
T1 sequence (P57059 whole entry): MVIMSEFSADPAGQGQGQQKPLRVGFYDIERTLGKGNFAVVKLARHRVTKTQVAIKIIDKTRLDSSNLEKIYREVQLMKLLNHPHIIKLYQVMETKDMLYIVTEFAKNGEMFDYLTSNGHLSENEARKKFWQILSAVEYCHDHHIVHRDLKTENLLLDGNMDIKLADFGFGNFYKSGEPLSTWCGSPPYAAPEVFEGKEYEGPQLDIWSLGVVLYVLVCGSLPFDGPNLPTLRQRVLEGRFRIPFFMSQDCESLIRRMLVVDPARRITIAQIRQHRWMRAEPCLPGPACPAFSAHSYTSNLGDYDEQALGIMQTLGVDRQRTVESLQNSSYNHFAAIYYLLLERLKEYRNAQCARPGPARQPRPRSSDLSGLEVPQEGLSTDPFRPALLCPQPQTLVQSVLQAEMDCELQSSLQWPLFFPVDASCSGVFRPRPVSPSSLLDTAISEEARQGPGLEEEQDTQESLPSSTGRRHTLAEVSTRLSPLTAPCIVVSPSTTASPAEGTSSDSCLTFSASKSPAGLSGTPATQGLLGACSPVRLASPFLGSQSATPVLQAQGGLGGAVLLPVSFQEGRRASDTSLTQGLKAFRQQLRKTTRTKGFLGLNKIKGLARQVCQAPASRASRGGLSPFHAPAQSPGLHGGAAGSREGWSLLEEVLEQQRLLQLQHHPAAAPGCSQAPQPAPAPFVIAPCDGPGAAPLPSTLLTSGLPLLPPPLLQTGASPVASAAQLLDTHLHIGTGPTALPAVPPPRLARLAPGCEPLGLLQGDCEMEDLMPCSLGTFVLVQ

Row | IC50 [1] | IC50 [2] | IC50 [3] | SMILES
1 | 100 to 500 nM | 10 to 100 nM | 0.01 to 10 nM | COc1cc(-c2cnc3cc(OCC4(C)CN(C(=O)OC(C)(C)C)C4)ccn23)cc2c1C(=O)N(CC(F)(F)F)CC2 [compound 249, tert-butyl 3-[[3-[8-methoxy-1-oxo-2-(2,2,2-trifluoroethyl)-3,4-dihydroisoquinolin-6-yl]imidazo[1,2-a]pyridin-7-yl]oxymethyl]-3-methyl-azetidine-1-carboxylate]
2 | 10 to 100 nM | 0.01 to 10 nM | 0.01 to 10 nM | COc1cc(-c2cnc3cc(OC[C@H]4CCN(C5COC5)C4)ccn23)cc(OC(F)F)c1C(=O)NC1CC1 [compound 317, N-cyclopropyl-2-(difluoromethoxy)-6-methoxy-4-[7-[[(3S)-1-(oxetan-3-yl)pyrrolidin-3-yl]methoxy]imidazo[1,2-a]pyridin-3-yl]benzamide]
3 | 10 to 100 nM | 0.01 to 10 nM | 0.01 to 10 nM | COc1cc(-c2cnc3cc(OCCN4CCOCC4C)ccn23)cc(OC(F)F)c1C(=O)NC1CC1 (stereo not drawn) [compound 232, N-cyclopropyl-2-(difluoromethoxy)-6-methoxy-4-[7-[2-(3-methylmorpholin-4-yl)ethoxy]imidazo [1,2-a]pyridin-3-yl]benzamide]
4 | > 500 nM | 10 to 100 nM | 10 to 100 nM | CN(C)CCOc1ccn2c(-c3cc(F)c(C(=O)NCC(F)(F)F)c(OC(F)F)c3)cnc2c1 [compound 155, 2-(difluoromethoxy)-4-[7-[2-(dimethylamino)ethoxy]imidazo[1,2-a]pyridin-3-yl]-6-fluoro-N-(2,2,2-trifluoroethyl)benzamide]
5 | 10 to 100 nM | 0.01 to 10 nM | 0.01 to 10 nM | COc1cc(-c2cnc3cc(OC[C@@H]4CCCN(C5COC5)C4)ccn23)cc(OC(F)F)c1C(=O)NC1CC1 [compound 339, N-cyclopropyl-2-(difluoromethoxy)-6-methoxy-4-[7-[[(3R)-1-(oxetan-3-yl)-3-piperidyl]methoxy]imidazo[1,2-a]pyridin-3-yl]benzamide]
6 | 10 to 100 nM | 10 to 100 nM | 0.01 to 10 nM | COc1cc(-c2cnc3cc(OC4CCOC4)ccn23)cc(OC(F)F)c1C(=O)NC1CC1 (stereo not drawn) [compound 163, N-cyclopropyl-2-(difluoromethoxy)-6-methoxy-4-(7-tetrahydrofuran-3-yloxyimidazo[1,2-a]pyridin-3-yl)benzamide]
7 | 10 to 100 nM | 0.01 to 10 nM | 0.01 to 10 nM | COc1cc(-c2cnc3cc(OCC(F)(F)CN)ccn23)cc(OC(F)F)c1C(=O)NC1CC1 [compound 364, 4-[7-(3-amino-2,2-difluoro-propoxy)imidazo[1,2-a]pyridin-3-yl]-N-cyclopropyl-2-(difluoromethoxy)-6-methoxy-benzamide]
8 | 10 to 100 nM | 0.01 to 10 nM | 0.01 to 10 nM | COc1cc(-c2cnc3cc(OCCN4CCN(CCO)CC4)ccn23)cc(OC(F)F)c1C(=O)NC1CC1 [compound 308, N-cyclopropyl-2-(difluoromethoxy)-4-[7-[2-[4-(2-hydroxyethyl)piperazin-1-yl]ethoxy]imidazo[1,2-a]pyridin-3-yl]-6-methoxy-benzamide]

Continued, molecule first:

Row | SMILES | IC50 [1] | IC50 [2] | IC50 [3]
9 | COc1cc(-c2cnc3cc(OCC4(C)CN(C(=O)OC(C)(C)C)C4)ccn23)cc(OC(F)F)c1C(=O)NC1CC1 [Cpd 188, tert-butyl 3-[[3-[4-(cyclopropylcarbamoyl)-3-(difluoromethoxy)-5-methoxy-phenyl]imidazo[1,2-a]pyridin-7-yl]oxymethyl]-3-methyl-azetidine-1-carboxylate] | 10 to 100 nM | 0.01 to 10 nM | 0.01 to 10 nM
10 | COc1cc(-c2cnc3cc(OCC4(F)CN(C(=O)OC(C)(C)C)C4)ccn23)cc(OC(F)F)c1C(=O)NC1CC1 [Cpd 187, tert-butyl 3-[[3-[4-(cyclopropylcarbamoyl)-3-(difluoromethoxy)-5-methoxy-phenyl]imidazo[1,2-a]pyridin-7-yl]oxymethyl]-3-fluoro-azetidine-1-carboxylate] | 10 to 100 nM | 0.01 to 10 nM | 0.01 to 10 nM
11 | COc1cc(-c2cnc3cc(OCC4CCCN(C=O)C4)ccn23)cc(OC(F)F)c1C(=O)NC1CC1 (stereo not drawn) [compound 142, N-cyclopropyl-2-(difluoromethoxy)-4-[7-[(1-formyl-3-piperidyl)methoxy]imidazo [1,2-a]pyridin-3-yl]-6-methoxy-benzamide] | 0.01 to 10 nM | 0.01 to 10 nM | 0.01 to 10 nM
12 | COc1cc(-c2cnc3cc(OCC(N)C4CC4)ccn23)cc(OC(F)F)c1C(=O)NC1CC1 (stereo not drawn) [compound 137, 4-[7-(2-amino-2-cyclopropyl-ethoxy)imidazo[1,2-a]pyridin-3-yl]-N-cyclopropyl-2-(difluoromethoxy)-6-methoxy-benzamide] | 10 to 100 nM | 0.01 to 10 nM | 0.01 to 10 nM
13 | COc1cc(-c2cnc3cc(OCCN(C)C)ccn23)cc(F)c1C(=O)NC1CC1 [compound 51, N-cyclopropyl-4-[7-[2-(dimethylamino)ethoxy]imidazo[1,2-a]pyridin-3-yl]-2-fluoro-6-methoxy-benzamide] | > 500 nM | 10 to 100 nM | 10 to 100 nM
14 | COc1cc(-c2cnc3cc(OCCC4CCCCN4C)ccn23)cc(OC(F)F)c1C(=O)NC1CC1 (stereo not drawn) [compound 24, N-cyclopropyl-2-(difluoromethoxy)-6-methoxy-4-[7-[2-(1-methyl-2-piperidyl)ethoxy]imidazo [1,2-a]pyridin-3-yl]benzamide] | 0.01 to 10 nM | 0.01 to 10 nM | 0.01 to 10 nM
15 | COc1cc(-c2cnc3cc(OC4(C#N)CCCC4)ccn23)cc(OC(F)F)c1C(=O)NC1CC1 [Cpd 255, 4-[7-(1-cyanocyclopentoxy)imidazo[1,2-a]pyridin-3-yl]-N-cyclopropyl-2-(difluoromethoxy)-6-methoxy-benzamide] | > 500 nM | 100 to 500 nM | 10 to 100 nM
16 | COc1cc(-c2cnc3cc(OCC4(CN)CCC4)ccn23)cc(OC(F)F)c1C(=O)NC1CC1 [compound 116, 4-[7-[[1-(aminomethyl)cyclobutyl]methoxy]imidazo[1,2-a]pyridin-3-yl]-N-cyclopropyl-2-(difluoromethoxy)-6-methoxy-benzamide] | 10 to 100 nM | 0.01 to 10 nM | 0.01 to 10 nM
17 | COc1cc(-c2cnc3cc(OC[C@@H](N)CC(C)C)ccn23)cc(OC(F)F)c1C(=O)NC1CC1 [compound 132, 4-[7-[(2S)-2-amino-4-methyl-pentoxy]imidazo[1,2-a]pyridin-3-yl]-N-cyclopropyl-2-(difluoromethoxy)-6-methoxy-benzamide] | 10 to 100 nM | 0.01 to 10 nM | 0.01 to 10 nM
18 | COc1cc(-c2cnc3cc(OCCNCCO)ccn23)cc(OC(F)F)c1C(=O)NC1CC1 [compound 114] | 10 to 100 nM | 0.01 to 10 nM | 0.01 to 10 nM
19 | COc1cc(-c2cnc3cc(OCc4nccs4)ccn23)cc(OC(F)F)c1C(=O)NC1CC1 [compound 47, N-cyclopropyl-2-(difluoromethoxy)-6-methoxy-4-[7-(thiazol-2-ylmethoxy)imidazo[1,2-a]pyridin-3-yl]benzamide] | 10 to 100 nM | 0.01 to 10 nM | 0.01 to 10 nM
20 | COc1cc(-c2cnc3cc(OCCN4CCS(=O)(=O)CC4)ccn23)cc(OC(F)F)c1C(=O)NC1CC1 [compound 22, N-cyclopropyl-2-(difluoromethoxy)-4-[7-[2-(1,1-dioxo-1,4-thiazinan-4-yl)ethoxy]imidazo[1,2-a]pyridin-3-yl]-6-methoxy-benzamide] | 10 to 100 nM | 0.01 to 10 nM | 0.01 to 10 nM
